In US8063018B2, “Bivalent thrombin binding molecules comprising linkers” (National Research Council of Canada, priority 2004, dated 2011):

How the values were obtained:
[1] = molecular target: anti-c-myc antibody 9E10; conditions: read-out: Affinity for anti-c-myc antibody 9E10; cited from earlier work
[2] = molecular target: α-thrombin (Homo sapiens, UniProt P00734); assay: Amidolytic assay of CaM-DTI and CaM-DTI2 (S-2238 or S-2366); type: biochemical; set-up: with a certain fixed concentration of α-thrombin (˜0.3 nM); conditions: Ca2+ up to 5 mM
Procedure: Kinetics of thrombin-catalyzed hydrolysis of the chromogenic substrates S-2238 or S-2366 (Chromogenix) was followed by absorbance at 405 nm on a SpectraMax plate reader thermostated at 37° C. The concentration of the substrate was 400 μM. Inhibition assays were performed in the clotting buffer with a certain fixed concentration of α-thrombin (˜0.3 nM) such that linear progress curves were observed within at least 15 min in the absence of the inhibition. The total volume of the reaction mixture was 200 μl. […] Kinetics data from initial rate experiments were used to construct Lineweaver-Burke plot; i.e. the relationship of (substrate concentration)^−1 versus (initial velocity)^−1 which were analysed by linear regression with MicroCal Origin 6.0 program (MicroCal, Md.). The Ki values of the inhibitors were determined using the equation Ki=[I]/{(SLo/SL1)−1}, where [I] is the inhibitor concentration, SLo is the slope of the reaction in the absence of inhibitors, and SL1 is the slope of the reaction in the presence of the inhibitor.
Kinetics of thrombin-catalyzed hydrolysis of the chromogenic substrate S-2366 (Chromogenix) was followed by absorbance at 405 nm on a SpectraMax plate reader at 25° C. The concentration of the substrate S-2366 was 50 μM. Inhibition assays were performed in the clotting buffer with a certain fixed concentration of α-thrombin (˜0.6 nM). […]

Question: With EQKLISEEDL [c-myc sequence] as the substance, how does the Kd [1] read?
Answer: The Kd was ~500 nM.

Question: For “Ile-Arg-Phe-Thr-Asp-Gly-Glu-Gly-(CamCKK)-Asp-Phe-Glu-Glu-Ile-Pro-Glu-Glu-Tyr-Leu-Gln [CaM-DTI2]”, which “Effect of Ca2+ on inhibition of the thrombin active site” value [2] is on record?
Answer: Its value is “not affected”.
